Source: US10103402B2, “Liquid phenothiazine catholytes for non-aqueous redox flow batteries” (University of Kentucky Research Foundation, priority 2015, dated 2018)

How the values were obtained:
[1] = Cyclic voltammetry, half-wave oxidation potentials; type: physicochemical; conditions: for E1/2^+/0 vs. Li^+/0, LiBF4 in PC: 10 mM analyte in 0.5M LiBF4/PC, 100 mV/s; for Oxidation potential higher than EPT, LiPF6/EC/EMC: difference of E1/2^+/0 to EPT in LiPF6/EC/EMC; for Oxidation potential higher than EPT, TBA-PF6/DCM: difference of E1/2^+/0 to EPT in TBA-PF6/DCM
Protocol: The compounds of the present invention provide for components of a redox flow battery system, particularly as part of a catholyte composition. The studies described herein detail their effectiveness for such. The position and reversibility of redox events was determined by cyclic voltammetry (CV), performed in dichloromethane (DCM) containing 0.1 M tetra(n-butyl)ammonium hexafluorophosphate (TBA-PF6) (FIG. 7), in EC/EMC (3:7) containing 1.2 M LiPF6 (FIG. 2), or in propylene carbonate (PC) containing 0.5 M LiBF4 (FIG. 2). Both compounds show reversible first oxidations in all electrolytes. In TBA-PF6/DCM, MEPT (E1/2^+/0=0.30 V vs. Cp2Fe^+/0) and MEEPT (E1/2^+/0=0.29 V vs. Cp2Fe^+/0) oxidize at 0.03 and 0.02 V higher, respectively, than EPT (Table 1). In contrast, though the oxidation potentials of the new compounds were still higher than that of EPT in LiPF6/EC/EMC, a larger difference was observed: MEPT (E1/2^+/0=3.56 V vs. Li^+/0) and MEEPT (E1/2^+/0=3.60 V vs. Li^+/0) oxidized at […] higher, respectively, than EPT (Table 1). The increase in oxidation potential in the lithium-based electrolytes can be attributed to the coordination, through the oligoether side chain, of MEPT to Li^+, a characteristic that is even more pronounced in the case of MEEPT.
(§1) Cyclic voltammetry (CV) experiments were performed using a CH Instruments 600D potentiostat using a three-electrode system in either 100 mM TBAPF6 in anhydrous DCM or in 1.2 M LiPF6 in ethylene carbonate (EC)/ethyl methyl carbonate (EMC) (3:7 wt. ratio) containing […] redox shuttle. Cyclic voltammograms were also recorded in 0.5 M LiBF4 in propylene carbonate (PC) containing 10 mM analyte. Glassy carbon was used as the working electrode, platinum wire as the counter electrode and either freshly anodized Ag/AgCl (in DCM) or lithium metal (in battery electrolyte) as reference electrodes. Oxidation potentials are reported relative to ferrocenium/ferrocene) (Cp2Fe^+/0) in DCM or to Li^+/0 in battery electrolyte. Voltammograms were recorded at a scan rate of 100 mV/s. To determine diffusion coefficients, voltammograms were recorded at variable rates between 5 and 500 mV/s at analyte concentration of 80 mM in 1.2 M LiPF6 in EC/EMC and 10 mM in 0.5 M LiBF4 in PC.

[2] = Cyclic voltammetry, half-wave oxidation potentials; type: physicochemical; conditions: for E1/2^+/0 vs. Cp2Fe^+/0 in TBA-PF6 in DCM: 80 mM analyte in 100 mM TBA-PF6/DCM, 100 mV/s scan rate; for E1/2^+/0 vs. Li^+/0, LiPF6 in EC/EMC: 80 mM analyte in 1.2M LiPF6 in EC/EMC (3:7 wt. ratio), 100 mV/s
[3] = Cyclic voltammetry at variable scan rates, diffusion coefficients; type: physicochemical; conditions: for Diffusion Coefficient, neutral, TBA-PF6 in DCM / Diffusion Coefficient, oxidized, TBA-PF6 in DCM: 10 mM analyte in 100 mM TBA-PF6/DCM, 10 to 200 mV/s; for Diffusion Coefficient, neutral, LiBF4 in PC / Diffusion Coefficient, oxidized, LiBF4 in PC: 10 mM analyte in 0.5M LiBF4/PC; for Diffusion Coefficient, neutral, LiBF4 in PC / Diffusion Coefficient, neutral, LiPF6 in EC/EMC / Diffusion Coefficient, oxidized, LiBF4 in PC / Diffusion Coefficient, oxidized, LiPF6 in EC/EMC: 5 to 500 mV/s; for Diffusion Coefficient, neutral, LiPF6 in EC/EMC / Diffusion Coefficient, oxidized, LiPF6 in EC/EMC: 80 mM analyte in 1.2M LiPF6 in EC/EMC (3:7)
Protocol: MEPT and MEEPT were subjected to CV experiments at variable scan rates in the carbonate-based electrolytes and DCM to determine their diffusion coefficients (FIG. 2, 8). At 80 mM, MEPT and MEEPT diffuse more slowly than EPT. This observation can be explained by the interaction of MEPT and MEEPT with a lithium ion from the electrolyte, which increases the size/molecular weight of the shuttle. Because the additional oxygen in MEEPT enhances the ability for Li^+ chelation, this effect is posited to be responsible for the further reduction in its diffusion rate.
as §1

[4] = Solubility / miscibility in battery electrolyte and organic solvents; type: physicochemical; conditions: for Concentration corresponding to 50 wt. % miscibility: 1.2 M LiPF6 in EC/EMC (3:7 wt. ratio)
Text: The compounds of the present invention can be prepared by deprotonation of phenothiazine and a subsequent SN2 reaction with a corresponding alkyl halide. This process has produced MEPT and MEEPT in good yields. The compounds were isolated as colorless oils that were miscible with a variety of organic solvents. Both derivatives were miscible up to 50 wt. % in the common battery electrolyte, 1.2 M LiPF6 in ethylene carbonate/ethyl methyl carbonate (EC/EMC, 3:7 wt. ratio) (Table 1), which corresponds to a concentration of ca. 2 M. In contrast, the solubility of EPT is limited to 0.1 M in the same electrolyte.
Next, to evaluate MEPT and MEEPT as cathode candidates for RFBs, the performance of the redox-active species over multiple charge and discharge cycles was analyzed, albeit in a static environment, using galvanostatic cycling in MEPT/Li and MEEPT/Li coin cells. Here we employed the electrolyte 0.5 M LiBF4 in PC in which both MEPT and MEEPT are miscible at as high as 50 wt. % (Table 1). The positive electrode was composed of graphite felt soaked in catholyte consisting of 10 mM active species in 0.5 M LiBF4 in PC, and Li metal was employed as the negative electrode. The electrodes were separated by a lithiated Nafion membrane. The coin cells were cycled between 3.2 and 3.8 V at a rate of C/5 up to 100% SOC so that the first oxidation would be accessed. The theoretical capacities of EPT, MEPT, and MEEPT are 118 mAh/g, 104 mAh/g, and 89 mAh/g, respectively. The charge and discharge plateaus occur in accordance with the potentials determined by CV; they represent the formation and reversible reduction of the respective radical cations. […] The gap between the charge and discharge capacities may result from crossover of the charged species. […] EPT, MEPT, and MEEPT retained ca. 76%, 68% and 67%, respectively, of the original charge capacity after 30 cycles, over which time the coulombic efficiencies for all three catholytes stabilized at ca. 90%.

[5] = Radical cation stability by UV-vis absorption spectroscopy; type: physicochemical; conditions: 0.167 mM radical cation in DCM, oxidation with TBPA-SbCl6, monitored 5 h
Text: The stability of the radical cation—typically the more reactive form of the electro-active material—can be monitored using UV-vis absorption spectroscopy as these species absorb light in the visible region. This method has proven to be useful for the evaluation of redox shuttle candidates for overcharge protection in LIBs, another application in which the radical cation is involved in electron transfer. The stability of the EPT, MEPT, and MEEPT radical cations were compared in dilute dichloromethane solutions after generation through chemical oxidation with tris(4-bromophenyl)aminium hexachloroantimonate (TBPA-SbCl6).
UV-vis spectra were collected using optical glass cuvettes (Starna) with 1 cm path length with an Agilent 8453 diode array spectrometer. Radical cations were generated in anhydrous DCM by the addition of a 1 mL DCM solution of 0.50 mM TBPA-SbCl6 to a 2 mL DCM solution containing 2.5 mM analyte to produce a final solution containing 0.17 mM radical cation with 1.7 mM analyte, which generates 0.17 mM analyte radical cation with a 9-fold excess of neutral analyte. The cuvettes were capped, and spectra were collected for 5 h.

[6] = cited from earlier work
[7] = carbonate-based electrolytes; cited from earlier work

E1/2^+/0 vs. Li^+/0, LiBF4 in PC [1]	Oxidation potential higher than EPT, LiPF6/EC/EMC [1]	Oxidation potential higher than EPT, TBA-PF6/DCM [1]	E1/2^+/0 vs. Cp2Fe^+/0 in TBA-PF6 in DCM [2]	E1/2^+/0 vs. Li^+/0, LiPF6 in EC/EMC [2]	Diffusion Coefficient, neutral, TBA-PF6 in DCM [3]	Diffusion Coefficient, neutral, LiBF4 in PC [3]	Diffusion Coefficient, neutral, LiPF6 in EC/EMC [3]	Diffusion Coefficient, oxidized, TBA-PF6 in DCM [3]	Diffusion Coefficient, oxidized, LiBF4 in PC [3]	Diffusion Coefficient, oxidized, LiPF6 in EC/EMC [3]	Concentration corresponding to 50 wt. % miscibility [4]	Radical cation stability, change of absorption spectra [5]	Solubility 0.5M LiBF4 in PC ([4]; 0.5 M LiBF4 in PC)	SMILES	Solubility in organic solvents ([6]; organic solvents)	Oxidation potential vs. Li^+/0 [7]	Solubility in organic solvents and electrolytes ([6]; organic solvents and electrolytes)
3.64 V	0.09 V	0.02 V	0.29 V	3.60 V	2.5 ×10^−6 cm^2s^−1	0.7, 0.7 ×10^−6 cm^2s^−1	0.2 ×10^−6 cm^2s^−1	1.6 ×10^−6 cm^2s^−1	0.7, 0.7 ×10^−6 cm^2s^−1	0.1 ×10^−6 cm^2s^−1	ca. 2 M	remain almost unchanged	–	COCCOCCN1c2ccccc2Sc2ccccc21 [MEEPT, N-[2-(2-methoxyethoxy)ethyl]phenothiazine]	–	–	–
3.60 V	–	–	0.27 V	3.51 V	3.9 ×10^−6 cm^2s^−1	1.5 ×10^−6 cm^2s^−1	1.0 ×10^−6 cm^2s^−1	2.4 ×10^−6 cm^2s^−1	1.4 ×10^−6 cm^2s^−1	0.7 ×10^−6 cm^2s^−1	–	remain almost unchanged	≤ 0.1M	CCN1c2ccccc2Sc2ccccc21 [EPT, N-ethylphenothiazine, reference compound]	ca. 0.1 M	ca. 3.5 V	–
–	–	–	–	–	–	–	–	–	–	–	–	–	–	CCN1c2ccc(C(F)(F)F)cc2Sc2cc(C(F)(F)F)ccc21 [BCF3EPT, 3,7-bis(trifluoromethyl)-N-ethylphenothiazine]	–	–	1500 to 2000 mM
3.64 V	0.06 V	0.03 V	0.30 V	3.56 V	3.7 ×10^−6 cm^2s^−1	1.1 ×10^−6 cm^2s^−1	0.4 ×10^−6 cm^2s^−1	2.6 ×10^−6 cm^2s^−1	1.0 ×10^−6 cm^2s^−1	0.2 ×10^−6 cm^2s^−1	ca. 2 M	remain almost unchanged	–	COCCN1c2ccccc2Sc2ccccc21 [MEPT, N-(2-methoxyethyl)phenothiazine]	–	–	–
